Experimental data: patent publication US20070154543A1, “Solid preparation for oral use” (KYORIN PHARMACEUTICAL CO., LTD, priority 2003, published 2007)

Test: Pharmacokinetics of KRP-101 in plasma after oral or intravenous administration
Assay type: in vivo
Conditions: male Beagle dog, intravenous, 0.5 mg/kg
Experimental: To a male Beagle dog, one tablet of the film-coated tablets obtained in Example 1 was administered orally or 0.5 mg/kg of KRP-101 were administered intravenously, and the concentration of KRP-101in plasma was measured until 24 hours after administration.

SMILES: CC[C@@H](Cc1ccc(OC)c(C(=O)NCc2ccc(Oc3ccc(F)cc3)cc2)c1)C(=O)O [KRP-101, (S)-2-[3-[N-[4-(4-fluorophenoxy)benzyl]carbamoyl]-4-methoxybenzyl]butanoic acid]
- AUC (Total area under concentration-time curve): 1354 ng·h/mL
- half-life (plasma, read-out: T½ (Elimination half-life) (converted)): 2.2 h
